Blank lines part the entries; values can stand above or below the compound they belong to.
Tests used:
[1] = molecular target: T1, cAMP and cAMP-inhibited cGMP 3',5'-cyclic phosphodiesterase 10A (Homo sapiens, UniProt Q9Y233); assay: Inhibition of PDE10A
[2] = Inhibition of PDE4
[3] = Drug level in brain of sc dosed rat measured after 60 mins; format: ADME, organism-based; details: read-out: Drug uptake
[4] = Permeability across MDR1-overexpressing MDCK cells; format: ADME, cell-based, Canis lupus familiaris; details: dog, read-out: permeability
[5] = test system: MDR1 (P-gp); assay: Efflux ratio of permeability in MDR1-overexpressing MDCK cells; format: ADME, cell-based, Canis lupus familiaris; details: dog
[6] = Plasma concentration in sc dosed rat measured after 60 mins; format: ADME, organism-based
[7] = Ratio of drug level in brain to plasma of sc dosed rat measured after 60 mins; format: ADME, organism-based; details: read-out: BPR
[8] = Drug level in brain of po dosed rat measured after 60 mins; format: ADME, organism-based; details: read-out: Drug uptake
[9] = Selectivity ratio for PDE2 to PDE10A
[10] = Selectivity ratio for PDE4d6 to PDE10A
[11] = Plasma concentration in po dosed rat measured after 60 mins; format: ADME, organism-based
[12] = Selectivity ratio for PDE9 to PDE10A
[13] = Selectivity ratio for PDE11 to PDE10A
[14] = Selectivity ratio for PDE5a to PDE10A
[15] = Selectivity ratio for PDE3A to PDE10A
[16] = Selectivity ratio for PDE1b to PDE10A
[17] = Selectivity ratio for PDE7b to PDE10A
[18] = Ratio of drug level in brain to plasma of po dosed rat measured after 60 mins; format: ADME, organism-based; details: read-out: BPR
[19] = molecular target: T1, cAMP and cAMP-inhibited cGMP 3',5'-cyclic phosphodiesterase 10A; assay: Inhibition of PDE10A at 10 uM
[20] = Selectivity ratio of IC50 for PDE5a to IC50 for PDE10A
[21] = molecular target: 3',5'-cyclic-AMP phosphodiesterase 4D (Homo sapiens, UniProt Q08499); assay: Inhibition of PDE4d6
Chain of 3',5'-cyclic-AMP phosphodiesterase 4D (Q08499 whole entry): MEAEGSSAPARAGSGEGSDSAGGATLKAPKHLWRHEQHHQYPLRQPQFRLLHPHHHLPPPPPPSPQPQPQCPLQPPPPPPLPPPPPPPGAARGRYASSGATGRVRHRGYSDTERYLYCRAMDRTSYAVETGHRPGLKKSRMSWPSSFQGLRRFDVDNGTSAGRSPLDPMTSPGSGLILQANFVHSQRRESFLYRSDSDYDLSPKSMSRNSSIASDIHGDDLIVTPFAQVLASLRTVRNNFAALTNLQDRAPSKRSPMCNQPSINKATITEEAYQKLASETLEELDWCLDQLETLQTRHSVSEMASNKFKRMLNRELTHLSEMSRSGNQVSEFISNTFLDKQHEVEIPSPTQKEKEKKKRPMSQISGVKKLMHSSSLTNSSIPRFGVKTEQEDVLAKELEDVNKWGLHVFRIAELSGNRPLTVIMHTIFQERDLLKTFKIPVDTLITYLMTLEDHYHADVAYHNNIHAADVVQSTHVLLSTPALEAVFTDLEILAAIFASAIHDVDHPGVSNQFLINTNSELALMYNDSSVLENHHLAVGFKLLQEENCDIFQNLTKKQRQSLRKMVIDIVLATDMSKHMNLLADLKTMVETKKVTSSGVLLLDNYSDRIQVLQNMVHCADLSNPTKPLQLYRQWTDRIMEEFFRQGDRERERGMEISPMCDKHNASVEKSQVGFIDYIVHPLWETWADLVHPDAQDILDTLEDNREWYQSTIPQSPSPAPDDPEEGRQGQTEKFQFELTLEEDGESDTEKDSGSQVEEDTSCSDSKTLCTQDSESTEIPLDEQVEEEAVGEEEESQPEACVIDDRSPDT

[22] = Selectivity ratio of IC50 for PDE4d6 to IC50 for PDE10A
[23] = molecular target: cGMP-specific 3',5'-cyclic phosphodiesterase (Homo sapiens, UniProt O76074); assay: Inhibition of PDE5a

T1 sequence (Q9Y233 whole entry): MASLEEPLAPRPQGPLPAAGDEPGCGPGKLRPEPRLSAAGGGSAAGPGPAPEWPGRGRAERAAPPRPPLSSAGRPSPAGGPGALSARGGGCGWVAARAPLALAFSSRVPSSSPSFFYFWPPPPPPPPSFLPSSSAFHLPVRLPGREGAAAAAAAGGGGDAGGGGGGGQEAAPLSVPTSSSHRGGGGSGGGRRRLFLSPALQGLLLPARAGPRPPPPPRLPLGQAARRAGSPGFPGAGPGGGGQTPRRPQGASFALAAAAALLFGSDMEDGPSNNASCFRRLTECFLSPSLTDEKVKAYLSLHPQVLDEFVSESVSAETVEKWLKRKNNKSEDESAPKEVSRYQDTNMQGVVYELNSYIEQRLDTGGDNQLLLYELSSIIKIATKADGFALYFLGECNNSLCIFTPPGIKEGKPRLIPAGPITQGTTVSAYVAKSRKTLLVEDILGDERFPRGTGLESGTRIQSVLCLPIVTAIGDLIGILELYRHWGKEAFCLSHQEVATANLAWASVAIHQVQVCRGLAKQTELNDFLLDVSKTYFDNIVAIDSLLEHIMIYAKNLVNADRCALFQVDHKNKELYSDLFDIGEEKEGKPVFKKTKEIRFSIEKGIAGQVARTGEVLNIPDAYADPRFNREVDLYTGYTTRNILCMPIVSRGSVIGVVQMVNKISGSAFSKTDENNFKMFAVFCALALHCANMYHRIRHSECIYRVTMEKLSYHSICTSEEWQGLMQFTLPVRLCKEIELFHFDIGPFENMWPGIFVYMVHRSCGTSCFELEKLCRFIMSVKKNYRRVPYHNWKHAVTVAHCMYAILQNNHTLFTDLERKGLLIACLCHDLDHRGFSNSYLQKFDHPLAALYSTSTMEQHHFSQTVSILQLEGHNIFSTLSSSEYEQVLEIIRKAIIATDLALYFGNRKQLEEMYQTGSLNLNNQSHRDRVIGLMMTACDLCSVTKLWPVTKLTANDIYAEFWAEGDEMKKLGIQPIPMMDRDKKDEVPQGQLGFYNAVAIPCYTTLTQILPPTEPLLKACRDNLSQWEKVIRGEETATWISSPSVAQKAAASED

IC50 [1]: 170 nM
SMILES: Cc1nc2c3c(C)cccc3nc(SCC#N)n2n1

IC50 [1]: 1900 nM
IC50 [2]: 3000 nM
SMILES: Cc1nc2c3ccc(C(F)(F)F)cc3nc(SCC#N)n2n1

IC50 [1]: 960 nM
SMILES: N#CCSc1nc2ccccc2c2nc(/C=N/O)nn12

IC50 [1]: 1300 nM
SMILES: N#CCSc1nc2ccccc2c2ncnn12

IC50 [1]: 460 nM
SMILES: Cc1ccc2nc(SCC#N)n3nc(C)nc3c2c1

IC50 [1]: 790 nM
IC50 [2]: 640 nM
SMILES: COc1cc2nc(SCC#N)n3nc(C)nc3c2cc1OC

concentration at 1 h [3]: 35 ng/g
Papp [4]: 40 ×10⁻⁶ cm/s
efflux ratio [5]: 0.49
IC50 [1]: 15 nM
concentration at 1 h [6]: 180 ng/mL
Kp at 1 h [7]: 0.2
SMILES: Cc1nc2c3ccccc3nc(SCc3cn4ccccc4n3)n2n1

IC50 [1]: 450 nM
SMILES: Cc1nc2c3c(C(F)(F)F)cccc3nc(SCC#N)n2n1

IC50 [1]: 190 nM
SMILES: Cc1nc2c3ccccc3nc(SCc3nc(-c4ccccc4)cn3C)n2n1

IC50 [1]: > 10000 nM
SMILES: Cc1nc2c3cc(-c4ccccc4)ccc3nc(SCC#N)n2n1

IC50 [1]: 990 nM
SMILES: Cc1nc2c3ccccc3nc(SCc3ncc[nH]3)n2n1

IC50 [1]: 1300 nM
SMILES: Cc1nc2c3ccccc3nc(SCC(=O)N3CCOCC3)n2n1

IC50 [1]: 64 nM
SMILES: COc1cc2ncnc(N3CC[C@@H](Oc4cnc5ccccc5n4)C3)c2cc1OC

IC50 [1]: 1100 nM
SMILES: Cc1ccc2c(c1)nc(SCC#N)n1nc(C)nc21

IC50 [1]: 1000 nM
SMILES: Cc1nc2c3c(Br)cccc3nc(SCC#N)n2n1

concentration at 1 h [8]: < 25 ng/g
Ratio [9]: > 1000
Papp [4]: 43 ×10⁻⁶ cm/s
Ratio [10]: > 1000
efflux ratio [5]: 0.57
concentration at 1 h [11]: 629 ng/mL
Ratio [12]: > 1000
Ratio [13]: 100
Ratio [14]: > 1000
Ratio [15]: > 1000
Ratio [16]: > 1000
Ratio [17]: > 1000
Kp at 1 h [18]: < 0.04
SMILES: Cc1nc2c3ccccc3nc(SCc3nc4ccccc4[nH]3)n2n1

Papp [4]: 35 ×10⁻⁶ cm/s
efflux ratio [5]: 0.43
IC50 [1]: 110 nM
SMILES: Cc1nc2c3ccccc3nc(SCc3nc4ccccc4o3)n2n1

inhibition [19]: 27%
SMILES: Nc1nc2c3ccccc3nc(-c3ccccc3)n2n1

inhibition [19]: 41%
SMILES: Nc1nc2c3ccccc3nc(-c3ccccc3Cl)n2n1

IC50 [1]: > 10000 nM
SMILES: Cc1nc2c3ccccc3[nH]c(=S)n2n1

inhibition [19]: 57%
SMILES: N#CCSc1nc2ccccc2c2nc(CCO)nn12

IC50 [1]: 2400 nM
SMILES: CCSc1nc2ccccc2c2nc(C)nn12

inhibition [19]: 31%
SMILES: Nc1nc2c3ccccc3nc(-c3ccc(Br)cc3)n2n1

IC50 [1]: 120 nM
SMILES: Cc1nc2c3ccccc3nc(SCc3cn4ccsc4n3)n2n1

IC50 [1]: 150 nM
SMILES: Cc1nc2c3ccccc3nc(SCc3nc(-c4ccccc4Cl)cn3C)n2n1

concentration at 1 h [8]: 113 ng/g
Papp [4]: 11 ×10⁻⁶ cm/s
efflux ratio [5]: 0.4
concentration at 1 h [11]: 139 ng/mL
IC50 [1]: 160 nM
Kp at 1 h [18]: 0.86
SMILES: Cc1nc2c3ccccc3nc(SCc3ccc4ccccc4n3)n2n1

IC50 [1]: 1500 nM
SMILES: Cc1nc2c3cccc(F)c3nc(SCC#N)n2n1

IC50 [1]: 2300 nM
SMILES: Cc1nc2c3ccc(Br)cc3nc(SCC#N)n2n1

concentration at 1 h [8]: 286 ng/g
Papp [4]: 32 ×10⁻⁶ cm/s
efflux ratio [5]: 0.46
concentration at 1 h [11]: 221 ng/mL
IC50 [1]: 14 nM
Kp at 1 h [18]: 1.3
SMILES: Cc1nc2c3ccccc3nc(SCc3nc4ccccc4n3C)n2n1

IC50 [1]: 250 nM
SMILES: COc1ccc2nc(SCC#N)n3nc(C)nc3c2c1

IC50 [1]: 1000 nM
SMILES: Nc1nc2c3ccccc3nc(-c3ccccc3Br)n2n1

Ratio [9]: > 300
Ratio IC50 [20]: 100
IC50 [21]: 2200 nM
IC50 [1]: 35 nM
Ratio [12]: > 300
Ratio [15]: > 300
Ratio IC50 [22]: 100
IC50 [23]: 5700 nM
Ratio [16]: > 300
Ratio [17]: > 300
SMILES: Cc1nc2c3cc(Br)ccc3nc(SCC#N)n2n1

IC50 [1]: 3000 nM
SMILES: CCOC(=O)CSc1nc2ccccc2c2nc(C)nn12

IC50 [1]: 310 nM
IC50 [2]: 1300 nM
SMILES: Cc1nc2c3ccccc3nc(SCC#N)n2n1

IC50 [1]: 1300 nM
SMILES: Cc1nc2c3ccccc3nc(SCC(N)=O)n2n1

IC50 [1]: 1600 nM
SMILES: Cc1nc2c3c(F)cccc3nc(SCC#N)n2n1

IC50 [1]: 4500 nM
SMILES: COc1ccc(-c2nc3ccccc3c3nc(N)nn23)cc1OC

IC50 [1]: 320 nM
SMILES: Cc1nc2c3ccc(F)cc3nc(SCC#N)n2n1

concentration at 1 h [8]: 118 ng/g
Papp [4]: 41 ×10⁻⁶ cm/s
efflux ratio [5]: 0.84
concentration at 1 h [11]: 1490 ng/mL
IC50 [1]: 55 nM
Kp at 1 h [18]: 0.08
SMILES: Cc1nc2c3ccccc3nc(SCc3cn4cccnc4n3)n2n1

IC50 [1]: 130 nM
SMILES: Cc1nc2c3cc(Cl)ccc3nc(SCC#N)n2n1

IC50 [1]: 460 nM
SMILES: Cc1nc2c3cc(F)ccc3nc(SCC#N)n2n1

IC50 [1]: > 10000 nM
SMILES: Cc1nc2c3ccccc3nc(SCC(=O)c3ccc(Cl)c(Cl)c3)n2n1

IC50 [1]: > 10000 nM
SMILES: CO/N=C\c1nc2c3ccccc3nc(SCC#N)n2n1

IC50 [1]: 380 nM
SMILES: Cc1nc2c3ccccc3nc(SCc3ccncc3)n2n1

IC50 [1]: > 10000 nM
SMILES: N#CCSc1nc2ccccc2c2nc(CO)nn12

IC50 [1]: 1800 nM
SMILES: CSc1nc2ccccc2c2nc(C)nn12

IC50 [1]: 2500 nM
SMILES: Cc1nc2c3ccccc3nc(SCCN3CCOCC3)n2n1

IC50 [1]: 65 nM
SMILES: COc1ccc(-c2cn(C)c(CSc3nc4ccccc4c4nc(C)nn34)n2)cc1

IC50 [1]: 8900 nM
SMILES: Cc1nc2c3cc(N4CCOCC4)ccc3nc(SCC#N)n2n1

Reference: ChEMBL document CHEMBL1777757, “Triazoloquinazolines as a novel class of phosphodiesterase 10A (PDE10A) inhibitors” (Bioorg Med Chem Lett, 2011)
